In patent US8551977B2, “Use of perifosine in combination with antimetabolites for the treatment of benign and malignant oncoses in humans and mammals” (AEterna Zentaris GmbH, priority 2002, dated 2013):

How the values were obtained:
[1] = system: tumor cells; details: Patel et al. 2002; cited from earlier work
[2] = system: DMBA-induced rat mammary carcinoma; test: DMBA-induced rat mammary carcinoma model; type: in vivo; details: initial tumor weight = 100%
Description: (§1) • In vivo Experiment: DMBA-induced rat mammary carcinoma model • Experimental Animal: Sprague-Dawley rat, female • Procedure: The mammary carcinoma was induced by a single oral dose of DMBA. The animals received perifosine from day 0 to day 14 and were observed up to day 42. The weight of the tumor mass was estimated by palpation and comparison with plastic models.
as §1, with “eight” for “weight”, “tumor was” for “tumor”

[3] = Example 1, female Sprague-Dawley rat, Perifosin 14×6.81 mg/kg p.o., Cis-platinum 4×1 mg/kg i.p.
[4] = Example 2, female Sprague-Dawley rat, Perifosine 14×6.81 mg/kg p.o., Cyclophosphamide 100 mg/kg i.v.
[5] = Example 3, female Sprague-Dawley rat, Perifosine 14×6.81 mg/kg p.o., Adriamycin 4×2.15 mg/kg i.p.

Compound: CCCCCCCCCCCCCCCCCCOP(=O)([O-])OC1CC[N+](C)(C)CC1 [Perifosin (D-21266), perifosine]
- cell cycle block [1]: blocks tumor cells in the G1-S and G2-M phase of the cell cycle
- Day 21, Change in % (tumor weight) [2, 3]: −25%
- Day 21, Change in % (tumor weight) [2, 4]: −25%
- Day 21, Change in % (tumor weight) [2, 5]: −25%

Compound: N.N.[Cl][Pt][Cl] [Cis-platinum, reference compound]
- Day 21, Change in % (tumor weight) [2, 3]: 410%

Compound: O=P1(N(CCCl)CCCl)NCCCO1 (stereo not shown) [Cyclophosphamide, reference compound]
- Day 21, Change in % (tumor weight) [2, 4]: 500%

Compound: COc1cccc2c1C(=O)c1c(O)c3c(c(O)c1C2=O)C[C@@](O)(C(=O)CO)C[C@@H]3O[C@H]1C[C@H](N)[C@H](O)[C@H](C)O1 [Adriamycin, reference compound]
- Day 21, Change in % (tumor weight) [2, 5]: 781%
